Consider 28 molecules from EP4008401A1, “COMPOSITION FOR CARTILAGE REGENERATION PROMOTION” (Suntory Holdings Limited, priority 2019, dated 2021).

For the experiment, the system named is human synovial cells. The experiment in a line: Cartilage pellet culture of human synovial cells (weight of cartilage pellets; differentiation into cartilage cells). In kind it is cell-based. The following applies: for activity at 5 µM / activity at 50 µM: Homo sapiens, Synovial cell, 504 h, read-out: Rate of increase (%); for Weight of pellets (g) (Ave): cultured three weeks; for weight of the cartilage pellets as compared to the control: result in words. How it is done: Purchased human synovial cells (available from Toyobo Co., Ltd.; HFLS (Normal), cryopreserved cells (adult); Code No. CA40805a) were seeded into a 150 mm culture dish (available from Corning) at a low density of 50 cells/cm^2 and cultured for 14 days.
The human synovial cells were cultured in the following medium. • α-MEM (available from Nacalai Tesque Inc.) • 10% Fetal bovine serum (available from Sigma-Aldrich) Antibiotic-Antimycotic Mixed Stock Solution (available from Nacalai Tesque Inc.)
Proliferated human synovial cells were detached with Accutase (available from Funakoshi Co., Ltd.), and the medium containing 20 × 10^4 cells was placed in a 15 mL tube made of polypropylene, followed by centrifugation at 1000 × rpm for five minutes. The recovered human synovial cells were cultured in a medium containing a test compound shown in Table 1 for three weeks, and the weight of the resultant cartilage pellets was measured (N = 3, each). The medium containing the test compound was replaced once in two or three days. The test compound was dissolved in the medium using dimethyl sulfoxide (DMSO) (available from Nacalai Tesque Inc.; final concentration: 0.1%) to a final concentration of 50 µM. The test compound was taxifolin (available from Sigma-Aldrich) or hesperetin (available from Funakoshi Co., Ltd.).
The cartilage pellets were cultured in the following medium. The control was cultured by adding DMSO without test compounds to the medium described below (final concentration of DMSO: 0.1%).
DMEM high-glucose (available from Thermo Fisher Scientific) 50 µg/mL L-ascorbic acid 2-phosphate sesquimagnesium salt hydrate (available from Sigma-Aldrich) 40 µg/mL L-proline (available from Sigma-Aldrich) 100 µg/mL Sodium pyruvate (available from Sigma-Aldrich) 50 mg/mL ITS + Premix (available from Corning) 10 ng/mL Transforming growth factor β3 (available from Sigma-Aldrich) 100 nM Dexamethasone (available from Sigma-Aldrich) 50 ng/mL Bone morphogenetic protein 2 (BMP-2) (available from Sigma-Aldrich)
In Table 1, the weight of pellets (g) is the weight of the cartilage pellets (average with N of 3), and SE is the standard error of the weight of pellets. […] A significant difference in the rate of increase (%) determined from the weight of the cartilage pellets relative to the control was tested by Student's t-test, with the significance level being 5% or lower. […]
The test of Example 1 was repeated, except that quercetin (available from Nacalai Tesque Inc.), isorhamnetin (available from Funakoshi Co., Ltd.), or eriodictyol (available from Funakoshi Co., Ltd.) was used as a test compound, and the test compound in the medium was adjusted to a final concentration of 5 µM. […] A significant difference test was performed as in Example 1, with the significance level being 5% or lower.
The test of Example 1 was repeated, except that luteolin (available from Funakoshi Co., Ltd.) or morin (available from Nacalai Tesque Inc.) was used as a test compound, and the test compound in the medium was adjusted to a final concentration of 5 µM. […] A significant difference test was performed as in Example 1, with the significance level being 5% or lower and the marginal significance level being 10% or lower. […]
The test of Example 1 was repeated, except that the compounds shown in Table 4 were used as test compounds and tested with N = 1. […] The final concentration of each of the compounds Nos. 1 to 15 in the medium was adjusted to 5 µM. The final concentration of each of the compounds Nos. 16 to 21 in the medium was adjusted to 50 µM.

Setting [1] is: Comparative Example 1, compounds Nos. 1 to 15, 5 µM, weight relative to control taken as 100%, N = 1.
[2] abbreviates: Comparative Example 1, compounds Nos. 16 to 21, 50 µM, weight relative to control taken as 100%, N = 1.
The mark [3] stands for this setting: Example 2, test compound 5 µM in medium, average with N of 3.
Where [4] appears, read: Example 2, 5 µM, weight of cartilage pellets relative to control taken as 100%, N = 3.
Setting [5] is: Example 1, test compound 50 µM in medium, average with N of 3.
Setting [6] is: Example 1, 50 µM, weight of cartilage pellets relative to control taken as 100%, N = 3.
Setting [7] is: Example 3, test compound 5 µM in medium, average of N of 3.
[8] abbreviates: Example 3, 5 µM, weight of cartilage pellets relative to control taken as 100%, N = 3.

Like-named read-outs stand apart in the source and are kept apart here.

As to `O=C(/C=C/c1ccc(O)c(O)c1)c1c(O)cc(O)cc1O` [3,4,2',4',6'-Pentahydroxychalcon], the activity at 5 µM under setting [1] was 111%. Take `O=C(/C=C/c1ccc(O)cc1)c1c(O)cc(O)cc1O` [4,2',4',6'-Tetrahydroxychalcon]: the activity at 5 µM under setting [1] stood at 118%. As to `O=c1c(-c2ccc(O)c(O)c2)coc2cc(O)ccc12` [7,3',4'-Trihydroxyisoflavone], the activity at 5 µM under setting [1] came to 95.3%. `O=c1cc(-c2ccc(O)cc2)oc2cc(O)cc(O)c12` [Apigenin]: the activity at 5 µM under setting [1] is 105%. Still for that read-out and setting: the value for `C[C@@H]1O[C@@H](O[C@H]2C(=O)c3c(O)cc(O)cc3O[C@@H]2c2ccc(O)c(O)c2)[C@H](O)[C@H](O)[C@H]1O` [Astilbin] was 60.5%; that for `COc1ccc(-c2coc3cc(O)cc(O)c3c2=O)cc1` [Biochaninn A] was 21.4%. For the molecule `COc1ccc(-c2coc3cc(O)ccc3c2=O)cc1O` [Calycosin], the activity at 5 µM under setting [1] was found to be 95.3%. On to `Oc1cc(O)c2c(c1)OC(c1ccc(O)c(O)c1)C(O)C2` (stereo not drawn) [Catechin], for which the activity at 50 µM was 112%.

With `O=c1cc(-c2ccccc2)oc2cc(O)cc(O)c12` [Chrysin], the activity at 50 µM under setting [2] is 108%. Regarding `Oc1cc(O)c2cc(O)c(-c3ccc(O)c(O)c3)[o+]c2c1` [Cyanidin], the activity at 5 µM under setting [1] was 51.2%. As for `O=c1c(-c2ccc(O)cc2)coc2cc(O)ccc12` [Daidzein], the activity at 5 µM under setting [1] is 100%. Still for that read-out and setting: the value for `Oc1cc(O)c2cc(O)c(-c3cc(O)c(O)c(O)c3)[o+]c2c1` [Delphinidin] was 41.9%.

In the case of `O=C1c2c(O)cc(O)cc2OCC1c1ccc(O)cc1` (stereo not drawn) [Dihydrogenistein], the activity at 50 µM under setting [2] amounted to 92.9%. Turning to `Oc1cc(O)c2c(c1)O[C@H](c1ccc(O)c(O)c1)[C@H](O)C2` [Epicatechin], the activity at 50 µM under setting [2] was determined as 117%. On to `Oc1ccc([C@H]2COc3cc(O)ccc3C2)cc1` [Equol], for which the activity at 5 µM turned out to be 81.4%. In the case of `O=C1C[C@@H](c2ccc(O)c(O)c2)Oc2cc(O)cc(O)c21` [Eriodictyol, eriodictyol], the “Weight of pellets (g) (Ave)” value under setting [3] is reported as 4.80 g. Further, the “weight of the cartilage pellets as compared to the control” value (“weight … compared to the control” for short) (Examples 2 and 3, 5 µM) was “significant increase”. For the same molecule, the activity at 5 µM under setting [4] is 132%. As for `COc1ccc(-c2coc3cc(O)ccc3c2=O)cc1` [Formononetin], the activity at 5 µM under setting [1] is 100%.

For the molecule `O=c1c(-c2ccc(O)cc2)coc2cc(O)cc(O)c12` [Genistein], under setting [1], the activity at 5 µM was found to be 104%. For the molecule `COc1ccc([C@@H]2CC(=O)c3c(O)cc(O)cc3O2)cc1O` [Hesperetin, hesperetin], the “weight … compared to the control” value (Example 1, 50 µM) is “significant increase”. Besides, the “Weight of pellets (g) (Ave)” value under setting [5] turned out to be 5.50 g. Besides, the activity at 50 µM under setting [6] was 139%. Consider `O=C(/C=C/c1ccc(O)cc1)c1ccc(O)cc1O` [Isoliquiritigenin], for which the activity at 5 µM came to 82.1%. `COc1cc(-c2oc3cc(O)cc(O)c3c(=O)c2O)ccc1O` [Isorham netin, isorhamnetin]: under setting [3], the “Weight of pellets (g) (Ave)” value worked out at 5.77 g. Further, the “weight … compared to the control” value (Examples 2 and 3, 5 µM) is listed as “significant increase”. Moreover, the activity at 5 µM under setting [4] was 159%. Consider `O=c1c(O)c(-c2ccc(O)cc2)oc2cc(O)cc(O)c12` [Kaempferol], for which the activity at 50 µM under setting [2] was found to be 95.8%. Consider `O=c1cc(-c2ccc(O)c(O)c2)oc2cc(O)cc(O)c12` [Luteolin, luteolin], for which, under setting [7], the “Weight of pellets (g) (Ave)” value was 3.53 g. The “weight … compared to the control” value (Examples 2 and 3, 5 µM) is listed as “increase”. Further, the activity at 5 µM under setting [8] amounted to 128%. In the case of `O=c1c(O)c(-c2ccc(O)cc2O)oc2cc(O)cc(O)c12` [Morin, morin], under setting [7], the “Weight of pellets (g) (Ave)” value came to 4.00 g. The “weight … compared to the control” value (Examples 2 and 3, 5 µM) is given as “significant increase”. The activity at 5 µM under setting [8] is 145%. Turning to `O=c1c(O)c(-c2cc(O)c(O)c(O)c2)oc2cc(O)cc(O)c12` [Myricetin], under setting [1], the activity at 5 µM was 69.8%.

For `O=C1C[C@@H](c2ccc(O)cc2)Oc2cc(O)cc(O)c21` [Naringenin], under setting [2], the activity at 50 µM turned out to be 117%. Consider `O=c1c(O)c(-c2ccc(O)c(O)c2)oc2cc(O)cc(O)c12` [Quercetin, quercetin], for which the “Weight of pellets (g) (Ave)” value under setting [3] is on record as 5.90 g. Further, the “weight … compared to the control” value (Examples 2 and 3, 5 µM) was “significant increase”. The activity at 5 µM under setting [4] was 162%. Turning to `O=C1c2c(O)cc(O)cc2O[C@H](c2ccc(O)c(O)c2)[C@H]1O` [Taxifolin, taxifolin], the “weight … compared to the control” value (Example 1, 50 µM) was “significant increase”. Under setting [5], the “Weight of pellets (g) (Ave)” value is 5.73 g. In addition, the activity at 50 µM under setting [6] came to 144%.
